Measured values published in EP0355234A1, “Pyrazolopyridine derivatives as antiatherosclerotic and antihypercholesterolemic agents” (MERRELL DOW PHARMACEUTICALS INC., priority 1988, dated 1990).
Counter-ions that a name gives are not always drawn.

System: Hypercholesterolemic Rabbit
Experiment: Antiatherosclerotic and antihypercholesterolemic effects in the hypercholesterolemic (2% cholesterol diet) rabbit, six weeks of treatment
Assay type: in vivo, New Zealand white male rabbits
Conditions: mean ± standard deviation; for % of thoracic arota covered by plaque / Aortic arch cholesterol: 6 weeks treatment; for % of thoracic arota covered by plaque: Sudan Black stain, cut-weight planimetry, positive control Group 2: 70.57±9.54; for Aortic arch cholesterol: positive control Group 2: 15.82±4.64; for Serum Cholesterol: after 6 wks treatment, positive control Group 2: 2475±434
Experimental: Four groups of New Zealand white male rabbits (weighing 1-2 kg) were treated for six weeks according to the following treatment schedule [all injections were in volumes corresponding to 0.1 ml/kg subcutaneously (s.c.)]: • Group 1 maintained on normal rabbit chow; received polyethylene glycol 300 (PEG ) injection twice daily. • Group 2 (Positive Control) maintained on rabbit chow containing 2% by weight cholesterol; received PEG injection twice daily. • Group 3 maintained on rabbit chow containing 2% by weight cholesterol; received 4,7-dihydro-1,6-dimethyl-4-(2-methylphenyl)-3-(2-methylpropyl)-1H-pyrozolo[3,4-b]pyridine-5-carboxylic acid methyl ester monohydrochloride (compound 1A) at a dose of 1 mg/kg in PEG twice daily. • Group 4 maintained on rabbit chow containing 2% by weight cholesterol; received compound 1A at a dose of 10 mg/kg in PEG twice daily.
The body weight of each rabbit was measured weekly. At three week and six week intervals after the start of treatment, blood samples were obtained from each rabbit and determinations of platelet aggregation, serum cholesterol, triglycerides, electrolyte concentrations and hematological parameters were performed.
Six weeks after the start of treatment, the animals were sacrificed. Aortic arches and thoracic aortas were removed and were dissected free of extraneous tissues. The aortic arches were weighed, homogenized in isopropanol, and determinations of cholesterol, triglycerides and electrolyte concentrations were performed. Thoracic aortas were slit down the ventral surface and stained for lipoproteins and lipids by immersion for 5 min in Sudan Black according to the method of Gradwohl (Gradwohl's Clinical Laboratory Methods and Diagnosis (1980) Vol. 1, Edition 8, Chapter 25, pg 771; Sonnenwerth and Jarett, editors, The C.V. Mosby Company, St. Louis, Toronto, London). The percentage of luminal surface covered by atherosclerotic plaque was assessed by "cut-weight" planimetry of the projected image according to the method of Willis et al. (Arteriosclerosis 5, 250 (1985)) whereby the photographic image was projected at a magnification of 7 to 10 and the outer border of the tissue and the boundary between plaque and uninvolved tissue were traced and the appropriate areas were cut out and weighed.

[1] = Group 3: 1 mg/kg bid s.c. in PEG
[2] = Group 4: 10 mg/kg bid s.c. in PEG

COC(=O)C1=C(C)Nc2c(c(CC(C)C)nn2C)C1c1ccccc1C (stereo not drawn) [Compound 1A, 4,7-dihydro-1,6-dimethyl-4-(2-methylphenyl)-3-(2-methylpropyl)-1H-pyrozolo[3,4-b]pyridine-5-carboxylic acid methyl ester monohydrochloride]
% of thoracic arota covered by plaque [1]: 34.33±19.03 % | Aortic arch cholesterol [1]: 9.57±1.38 µg/mg wet wt. | Serum Cholesterol [1]: 1919 ± 345 mg/dL | % of thoracic arota covered by plaque [2]: 36.71±9.95 % | Aortic arch cholesterol [2]: 9.27±1.91 µg/mg wet wt. | Serum Cholesterol [2]: 1774 ± 300 mg/dL
